The values below come from US9150528B2, “Compound having detrusor muscle-contracting activity and urethral sphincter muscle-relaxing activity” (ONO PHARMACEUTICAL CO., LTD., priority 2009, dated 2015).

The subject of the series is underactive bladder models. Briefly: Residual urinary volumes and bladder capacities in underactive bladder models (cystometry). It counts as in vivo, rat. The following applies: 0.01 mg/kg, oral, underactive bladder model rats. The procedure:
The underactive bladder models were constructed in accordance with the following procedure. Female Wistar rats (8 to 9 weeks age) were anesthetized by intraperitoneal administration of Somnopentyl (40 mg/kg), followed by dorsal shaving, and fixed in abdominal positions. Each of the dorsal areas was disinfected with chlorhexidine gluconate (5% hibitane liquid). The waist area was median-incised to expose the spinal column. After excision of the fifth lumbar spinous process, a silicone rubber was inserted into the sixth lumbar direction from a hole bored by a mini drill. For the purpose of avoiding infections, after completion of the surgical operation, benzylpenicillin potassium (25000 U/0.25 mL/body) was added dropwise to the incised area. The muscle and skin of the incised area were sutured with silk threads, and iodine tincture was applied to the sutured area. After the operation, maintenance of voiding was carried out by manual compressions three times daily. For the purpose of avoiding infections, potassium penicillin G (1.25 units/body) was administered subcutaneously. More than 5 days prior to cystometric evaluation, a catheter for cystometrogram was indwelled in the bladder. Anesthesia with sodium pentobarbital (40 mg/kg by intraperitoneal administration) and incision along the midline of the abdomen were carried out, followed by incision of the apex of the bladder. A catheter for cystometrogram filled with physiological saline was inserted into the bladder from a hole of the apical area, and fixed by ligation using silk suture threads. […]
The rats were anesthetized with ether and housed in a Bollmann cage 2 weeks after the construction of the models. To the front end of each of the bladder catheters, a pressure transducer via a three-way cock was connected, and the intravesical pressure was recorded using a strain pressure amplifier•recorder. […]
[…] After 1 hr, physiological saline was perfused into the bladder at a flow rate of 2 mL/h and voiding parameters (bladder capacity and residual urinary volume) were measured. […] Voiding parameters were calculated for each cystometry. […]

`C[C@@](O)(C/C=C/[C@H]1CCC(=O)[C@@H]1CCSc1nc(C(=O)O)cs1)CCC(F)=C(F)F` [Compound 17, 2-[(2-{(1R,5R)-2-oxo-5-[(1E,4S)-7,8,8-trifluoro-4-hydroxy-4-methyl-1,7-octadien-1-yl]cyclopentyl}ethyl)thio]-1,3-thiazole-4-carboxylic acid]: under “versus normal group”, the bladder capacity entry is recorded as “no effect”. For the same compound, the residual urinary volume result (versus vehicle group) is listed as “significant reduction”.
